From ChEMBL document CHEMBL1141323, “Iriomoteolides-1b and -1c, 20-membered macrolides from a marine dinoflagellate Amphidinium species” (J Nat Prod, 2007)
In brackets after ≈: the same amount, converted by molar mass.

Legend:
[1] = Cytotoxicity against human DG75 cells; type: cell-based; conditions: DG-75
Raji (Homo sapiens) = assay: Cytotoxicity against EBV-infected Raji cells; conditions: human gammaherpesvirus 4, Raji

SMILES	IC50 [1] [ng/mL]	IC50 (Raji (Homo sapiens)) [ng/mL]
C/C1=C/C(=O)[C@](C)(O)/C=C/C[C@H](C)[C@@H](C[C@H](C)[C@H](C)O)OC(=O)/C=C(/C)[C@@H](C)[C@@H](O)/C=C/C[C@H](O)C1	900 (≈ 1780 nM)	
C=C1C[C@@H]2C/C=C/[C@H](O)[C@H](C)/C(C)=C\C(=O)O[C@H](CCC(C)C(C)O)[C@@H](C)C/C=C/[C@@](C)(O)[C@](O)(C1)O2 (stereo not given in full)	2 (≈ 3.84 nM)	4 (≈ 7.68 nM)
C=C1C[C@@H]2C/C=C/[C@H](O)[C@H](C)/C(C)=C\C(=O)O[C@H](C[C@H](C)[C@H](C)O)[C@@H](C)C/C=C/[C@@](C)(O)[C@](O)(C1)O2	2 (≈ 3.95 nM)	4 (≈ 7.89 nM)
